Laboratory results: patent US20250230159A1, “FUSED HETEROCYCLIC COMPOUNDS AS MODULATORS OF RAS SIGNALLING” (Shenzhen Ionova Life Science Co., Ltd., priority 2022, published 2025)
Like-named read-outs stand apart in the source and are kept apart here.

How the values were obtained:
pERK in Hela cells = assay: Phospho-ERK (p-ERK) assay in Hela cells; type: cell-based; details: β-actin normalized
Procedure: This Example illustrates that exemplary compounds of the present invention prevent KRas-mediated GTP nucleotide exchange mediated by SOS1 to inhibit KRas activity, thereby inhibiting the generation of the downstream effector pERK.
Hela cells (23,000/w) were seeded in a black clear flat bottom 96-well cell culture plate (Corning, #3904) and incubated at 37° C. overnight. At day 2, cells were dosed with compounds of Formula (I) with a 10 μM starting concentration and serially diluted 3× for a total of 9 concentrations. The cells were incubated for 1 hour with the compounds solubilized in DMSO at 37° C. Cells were immediately fixed by adding 100 μL of 8% formaldehyde to all wells in a fume hood and the plates were incubated for 1 hr at room temperature. The formaldehyde was discarded from the plates and washed 5 times and each time for 5 min with 200 μL of Triton Washing Solution (0.1% Triton in PBS) each time to permeabilize the cells. Cells were then blocked with 150 μL of Odyssey blocking buffer (LI-COR Biosciences #927-50010) at room temperature on a shaker. The blocking buffer was discarded and 50 μL of primary antibodies pERK (cell signaling Technology #4370; Rabbit, 1:500) and β-actin (AF5001; Mouse, 1:2000) diluted in Odyssey blocking buffer was added. The plates were incubated overnight at 4° C. on a shaker.
On day 3, the primary antibody solution was removed. Each plate was washed 5× times with 200 μL of 1×PBST (PBS+0.1% Tween 20) and incubated with 50 μL of secondary antibodies: Anti-Rabbit (LI-COR Biosciences #926-32211) and Anti-Mouse (LI-COR Biosciences #68070) at 1:1000 dilution in Odyssey blocking buffer at room temperature on a shaker for 1 hour (protected from light). The secondary antibody solution as removed and each plate was washed with PBST 5× times. Any liquid remaining was discarded and the plate was imaged using the Licor Odyssey machine according to the manufacturer's instruction, using a set focus length at 3.5 mm and both 800 nm and 700 nm filters. The 3-actin normalized scan values for each well were divided by the average of vehicle wells to get the % of p-ERK inhibition. The IC50 values were then calculated with the Graph pad Prism software. In general, p-ERK IC50 data are in line with the PPI IC50 data.

[1] = biological target: KRAS-G12C/SOS1 interaction (Homo sapiens (Human), UniProt Q07889); assay: Protein-Protein Interaction (PPI) assay, SOS1-KRAS binding assay kit (HTRF)
Procedure: This Example illustrates that exemplary compounds of the present invention blockade the interaction of SOS1 to KRAS protein.
The ability of a compound of Formula (I) to block the interaction of SOS1 to KRAS was measured using a SOS1-KRAS binding assay kit (CAT #63ADK000CB16PEG, Cisbio). Utilizing HTRF (Homogeneous Time-resolved Fluorescence) technology, the assay enables simple and rapid characterization of compound and antibody blockers in a high throughput format. The interaction between Tag1-SOS1 and Tag2-KRAS-G12C is detected by using anti-Tag1-Terbium antibody (HTRF donor) and anti-Tag2-XL665 antibody (HTRF acceptor). When the donor and acceptor antibodies are brought into close proximity due to SOS1 and KRAS-G12C binding, excitation of the donor antibody triggers fluorescent resonance energy transfer (FRET) towards the acceptor antibody, which in turn emits specifically at 665 nm. This specific signal is directly proportional to the extent of KRAS-G12C/SOS1 interaction.
The assay was carried according to the manufacturer's instructions. Compounds at an initial concentration of 10 mM in DMSO were first serially diluted on a 384-well plate using assay buffer at a ratio of 1:3 for a total of 9 concentrations with each of a volume of 20 μL. Blank buffer was included as the negative control. The final compound solution was in the buffer solution with 1% DMSO. Then, in each well of a 384-well plate, a solution of 2 μL compound solution, 4 μL tagged SOS1 and KRAS (G12C) protein stocks, respectively, and 10 μM GTP was incubated for 15 min. 10 μL mixture of […] antibody and anti-Tag1-Terbium antibody was introduced to each individual well. After 2 hours incubation at room temperature, fluorescence readout was measured with a Pelkin Elmer multiple plate reader VICTOR Nivo.
Excitation was from over a range of 245-395 nm, and emission from the donor (emission 1) was detected at […] and emission from the acceptor (emission 2) was detected at (606.5-623.5) nm. The HTRF ratio was calculated using the formula: (emission 1 @665 nm/emission 2 @620 nm)×10000. Thus, compounds blocking KRAS-G12C/SOS1 interaction will cause a reduction in HTRF signal ratio. The IC50 values were then calculated with the Graph pad Prism software.

[2] = Homo sapiens, Table 1, 1 hour with compound

KRAS-G12C/SOS1 interaction, sequence (Q07889 whole entry, stated change not applied): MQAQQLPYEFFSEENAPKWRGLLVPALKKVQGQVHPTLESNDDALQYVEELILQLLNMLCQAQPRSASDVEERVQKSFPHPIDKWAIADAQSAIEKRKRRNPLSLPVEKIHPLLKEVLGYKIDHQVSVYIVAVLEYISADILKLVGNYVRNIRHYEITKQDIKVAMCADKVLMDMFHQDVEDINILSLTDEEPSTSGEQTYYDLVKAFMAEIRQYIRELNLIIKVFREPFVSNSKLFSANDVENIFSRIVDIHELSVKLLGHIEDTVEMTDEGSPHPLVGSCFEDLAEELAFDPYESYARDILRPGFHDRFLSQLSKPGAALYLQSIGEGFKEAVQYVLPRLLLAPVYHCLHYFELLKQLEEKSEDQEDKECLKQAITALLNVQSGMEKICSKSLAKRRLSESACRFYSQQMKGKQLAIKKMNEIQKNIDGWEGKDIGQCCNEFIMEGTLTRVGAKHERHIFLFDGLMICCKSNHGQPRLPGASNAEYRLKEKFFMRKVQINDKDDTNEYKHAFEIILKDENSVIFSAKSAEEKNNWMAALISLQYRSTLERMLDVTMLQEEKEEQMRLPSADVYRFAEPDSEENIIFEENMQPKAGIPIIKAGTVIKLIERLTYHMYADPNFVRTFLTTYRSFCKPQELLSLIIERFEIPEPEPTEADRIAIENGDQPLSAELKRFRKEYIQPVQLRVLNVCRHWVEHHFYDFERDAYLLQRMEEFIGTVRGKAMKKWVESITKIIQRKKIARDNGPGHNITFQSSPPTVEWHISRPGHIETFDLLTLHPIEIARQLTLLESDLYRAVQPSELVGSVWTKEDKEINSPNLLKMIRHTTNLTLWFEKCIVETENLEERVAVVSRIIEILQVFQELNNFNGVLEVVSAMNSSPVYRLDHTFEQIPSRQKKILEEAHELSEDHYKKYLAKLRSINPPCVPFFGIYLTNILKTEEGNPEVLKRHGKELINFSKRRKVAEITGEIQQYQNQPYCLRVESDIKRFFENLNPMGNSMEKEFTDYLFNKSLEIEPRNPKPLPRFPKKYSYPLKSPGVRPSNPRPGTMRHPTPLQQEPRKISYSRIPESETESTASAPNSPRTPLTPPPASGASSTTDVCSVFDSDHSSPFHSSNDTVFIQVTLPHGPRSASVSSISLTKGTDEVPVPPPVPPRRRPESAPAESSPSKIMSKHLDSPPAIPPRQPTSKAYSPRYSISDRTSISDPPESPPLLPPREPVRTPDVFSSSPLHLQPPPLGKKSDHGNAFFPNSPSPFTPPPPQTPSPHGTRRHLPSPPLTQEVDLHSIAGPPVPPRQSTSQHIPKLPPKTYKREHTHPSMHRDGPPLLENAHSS

Compound	IC50 ([1]; read-out: PPI Assay IC50) [nM]	IC50 (pERK in Hela cells; [2]) [nM]	further results
Cc1nc(N[C@H](C)c2cccc(C(F)F)c2F)c2cc(C(=O)N3CC4CC(C3)O4)c3ncnn3c2n1 [Example 35]	< 100	> 100	
Cc1nc(N[C@H](C)c2cccc(C(F)F)c2F)c2cc(C(=O)N3C4CCC3CN(C)C4)c3ncnn3c2n1 [Example 37]	< 100	> 100	
Cc1nc(N[C@H](C)c2cccc(C(F)F)c2F)c2cc(C(=O)N3CCOCC3)c3nnnn3c2n1 [Example 58]	< 100	< 100	
Cc1nc(N[C@H](C)c2cccc(C(F)F)c2F)c2cc(C(=O)N3CCCC34CCOC4)c3nnnn3c2n1 (stereo partly shown) [Example 60]	< 100	> 100	
Cc1nc(N[C@H](C)c2cccc(C(F)F)c2F)c2cc(C(=O)N3CC4(COC4)C3)c3nnnn3c2n1 [Example 62]			IC50 (pERK in Hela cells; Table 1, 1 hour with compound): > 100 nM; IC50 ([1]; Table 1 (PPI IC50 < 100 nM), Tag1-SOS1 / Tag2-KRAS-G12C, HTRF, 10 μM GTP, read-out: PPI Assay IC50): < 100 nM
Cc1nc(N[C@H](C)c2cccc(C(F)F)c2F)c2cc(C(=O)N3C4CC3CN(C)C4)c3nnnn3c2n1 [Example 66]	< 100	> 100	
CC(=O)N1CCC(c2cc3c(N[C@H](C)c4cccc(C(F)F)c4F)nc(C)nc3n3cnnc23)CC1 [Example 67, (R)-1-(4-(4-((1-(3-(difluoromethyl)-2-fluorophenyl)ethyl)amino)-2-methyl-[1,2,4]triazolo[4′,3′:1,6]pyrido[2,3-d]pyrimidin-6-yl)piperidin-1-yl)ethan-1-one]	< 100	> 100	
COCC(=O)N1CCC(c2cc3c(N[C@H](C)c4cccc(C(F)F)c4F)nc(C)nc3n3cnnc23)CC1 [Example 68]	< 100	> 100	
Cc1nc(N[C@H](C)c2cccc(C(F)F)c2F)c2cc(C3CCN(C(=O)N(C)C)CC3)c3nncn3c2n1 [Example 69]	< 100	> 100	
CCS(=O)(=O)N1CCC(c2cc3c(N[C@H](C)c4cccc(C(F)F)c4F)nc(C)nc3n3cnnc23)CC1 [Example 70]			IC50 (pERK in Hela cells; Homo sapiens, Table 2, 1 hour with compound): > 100 nM; IC50 [1]: > 100 nM
Cc1nc(N[C@H](C)c2cccc(C(F)F)c2F)c2cc(C3CCN(CCS(C)(=O)=O)CC3)c3nncn3c2n1 [Example 71]	< 100	> 100	
Cc1nc(N[C@H](C)c2cccc(C(F)F)c2F)c2cc(N3CCOCC3)c3nncn3c2n1 [Example 74, (R)—N-(1-(3-(difluoromethyl)-2-fluorophenyl)ethyl)-2-methyl-6-morpholino-[1,2,4]triazolo[4′,3′:1,6]pyrido[2,3-d]pyrimidin-4-amine]	< 100	> 100	
Cc1nc(N[C@H](C)c2cccc(C(F)F)c2F)c2cc(N3CCS(=O)(=O)CC3)c3nncn3c2n1 [Example 76]	< 100	> 100	
C[C@@H](Nc1ncnc2c1cc(N1CCOCC1)c1nncn12)c1cccc(C(F)F)c1F [Example 79]	< 100	< 100	
Cc1nc(N[C@H](C)c2cc(N)cc(C(F)(F)F)c2)c2cc(N3CCOCC3)c3nncn3c2n1 [Example 85]	< 100	< 100	
C[C@@H](Nc1ncnc2c1cc(N1CCOCC1=O)c1nncn12)c1cc(N)cc(C(F)(F)F)c1 [Example 86]	< 100	< 100	
C[C@@H](Nc1ncnc2c1cc(O[C@H]1CCOC1)c1nncn12)c1cccc(C(F)F)c1F [Example 88]	< 100	< 100	
Cc1nc(N[C@H](C)c2cccc(C(F)F)c2F)c2cc(N3CCOCC3)c3nnnn3c2n1 [Example 91, (R)—N-(1-(3-(difluoromethyl)-2-fluorophenyl)ethyl)-8-methyl-4-morpholinotetrazolo[1′,5′:1,6]pyrido[2,3-d]pyrimidin-6-amine]	< 100	< 100	
CC(=O)N1CCN(c2cc3c(N[C@H](C)c4cccc(C(F)F)c4F)nc(C)nc3n3nnnc23)CC1 [Example 92]	< 100	< 100	
Cc1nc(N[C@H](C)c2cccc(C(F)F)c2F)c2cc(N3CCS(=O)(=O)CC3)c3nnnn3c2n1 [Example 93]	< 100	> 100	
Cc1nc(N[C@H](C)c2cc(N)cc(C(F)(F)F)c2)c2cc(N3CCOCC3)c3nnnn3c2n1 [Example 95]	< 100	< 100	
C[C@@H](Nc1ncnc2c1cc(N1CCS(=O)(=O)CC1)c1nnnn12)c1cccc(C(F)F)c1F [Example 96]	< 100	> 100	
C[C@@H](Nc1ncnc2c1cc(N1CC(C(=O)N(C)C)C1)c1nnnn12)c1cccc(C(F)F)c1F [Example 97]	< 100	> 100	
C[C@@H](Nc1ncnc2c1cc(N1CCOCC1)c1nnnn12)c1cccc(C(F)F)c1F [Example 98]	< 100	< 100	

Now from value to compound, other results behind:

IC50 ([1]; read-out: PPI Assay IC50) [nM]	Compound	IC50 (pERK in Hela cells; [2]) [nM]	further results
< 100	Cc1nc(N[C@H](C)c2cccc(C(F)F)c2F)c2cc(C(=O)N3CC4(COC4)C3)c3ncnn3c2n1 [Example 27]	< 100	
< 100	Cc1nc(N[C@H](C)c2cccc(C(F)F)c2F)c2cc(C(=O)N3C[C@H]4COC[C@H]4C3)c3ncnn3c2n1 [Example 29]	< 100	
< 100	Cc1nc(N[C@H](C)c2cccc(C(F)F)c2F)c2cc(C(=O)N3CCCC34CCOC4)c3ncnn3c2n1 (stereo partly shown) [Example 31]	> 100	
< 100	Cc1nc(N[C@H](C)c2cccc(C(F)F)c2F)c2cc(C(=O)N3CCC4(COC4)C3)c3ncnn3c2n1 [Example 33]	> 100	
< 100	Cc1nc(N[C@H](C)c2cccc(C(F)(F)F)c2C)c2cc(C(=O)N3CC4(COC4)C3)c3ncnn3c2n1 [Example 38]	> 100	
< 100	Cc1nc(N[C@H](C)c2cccc(C(F)(F)F)c2F)c2cc(C(=O)N3CC4(COC4)C3)c3ncnn3c2n1 [Example 39]	> 100	
< 100	C[C@@H](Nc1ncnc2c1cc(C(=O)N1CC3(COC3)C1)c1ncnn12)c1cccc(C(F)F)c1F [Example 42]	> 100	
< 100	C[C@@H](Nc1ncnc2c1cc(C(=O)N1C3CC1CN(C)C3)c1ncnn12)c1cccc(C(F)F)c1F [Example 47]	> 100	
< 100	Cc1nc(N[C@H](C)c2cccc(C(F)F)c2F)c2cc(C(=O)N(C)C)c3nncn3c2n1 [Example 50, (R)-4-((1-(3-(difluoromethyl)-2-fluorophenyl)ethyl)amino)-N,N,2-trimethyl-[1,2,4]triazolo[4′,3′:1,6]pyrido[2,3-d]pyrimidine-6-carboxamide]	> 100	
< 100	Cc1nc(N[C@H](C)c2cccc(C(F)F)c2F)c2cc(C(=O)N3CC4(COC4)C3)c3nncn3c2n1 [Example 51]	> 100	
< 100	Cc1nc(N[C@H](C)c2cccc(C(F)F)c2F)c2cc(C(=O)N(C)C)c3nnnn3c2n1 [Example 55, (R)-6-((1-(3-(difluoromethyl)-2-fluorophenyl)ethyl)amino)-N,N,8-trimethyltetrazolo[1′,5′:1,6]pyrido[2,3-d]pyrimidine-4-carboxamide]	> 100	
